Reference: patent US12077503B2, “Substituted cyclic amides and their use as herbicides” (FMC CORPORATION, priority 2015, dated 2024)

Legend:
Type in all cases: in vivo
[1] = tested on: pigweed (Amaranthus retroflexus); assay: Test A preemergence
[2] = tested on: Kochia (Kochia scoparia); assay: Test A preemergence
Summary of the method: (§1)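 In a loam soil and sand blend, planted seeds got a preemergence directed soil spray, and young plants at the one- to two-leaf stage, 2–10 cm high, got a postemergence application; ~10 d greenhouse hold; injury rated visually, 0 = none, 100 = complete control.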

[3] = tested on: ryegrass, Italian (Italian ryegrass, Lolium multiflorum); assay: Test A preemergence
Summary of the method: as §1

[4] = tested on: giant foxtail (Setaria faberii); assay: Test A preemergence
Summary of the method: as §1

[5] = tested on: barnyardgrass (Echinochloa crus-galli); assay: Test A preemergence
Summary of the method: as §1

[6] = tested on: ragweed (common ragweed, Ambrosia elatior); assay: Test A preemergence
Summary of the method: as §1

[7] = tested on: rice (Oryra sativa); assay: Test B flooded paddy test; conditions: Flood, 250 g ai/ha; 0 to 100 scale where 0 is no effect and 100 is complete control; 13 to 15 d
Summary of the method: (§2)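 Evaluation by eye, against controls, occurred 13–15 d post-treatment in a greenhouse, using a 0 (no effect) to 100 (complete control) scale. Application was into the paddy water, 3 cm deep over the soil, on 2-leaf plants.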

[8] = tested on: ducksalad (Heteranthera limosa); assay: Test B flooded paddy test; conditions: Flood, 250 g ai/ha; 0 to 100 scale where 0 is no effect and 100 is complete control; 13 to 15 d
Summary of the method: as §2

[9] = tested on: sedge, umbrella (small-flower umbrella sedge, Cyperus difformis); assay: Test B flooded paddy test; conditions: Flood, 250 g ai/ha; 0 to 100 scale where 0 is no effect and 100 is complete control; 13 to 15 d
Summary of the method: as §2

[10] = tested on: barnyardgrass (Echinochloa crus-galli); assay: Test B flooded paddy test; conditions: Flood, 250 g ai/ha; 0 to 100 scale where 0 is no effect and 100 is complete control; 13 to 15 d
Summary of the method: as §2

[11] = tested on: blackgrass (Alopecurus myosuroides); assay: Test C preemergence; conditions: for Plant response rating, Blackgrass: scale 0 to 100, 0 no effect, 100 complete control; for Plant response rating (scale of 0 to 100), Blackgrass: 0 is no effect, 100 is complete control
Summary of the method: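 Herbicidal effect, applied preemergence to sown seeds or postemergence to 1- to 4-leaf plants, was scored visually 13 to 15 d after application, 0 to 100 versus controls.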

[12] = tested on: blackgrass (Alopecurus myosuroides); assay: Test A postemergence
Summary of the method: as §1

[13] = tested on: pigweed (Amaranthus retroflexus); assay: Test A postemergence; conditions: postemergence
Summary of the method: as §1

[14] = tested on: Kochia (Kochia scoparia); assay: Test A postemergence; conditions: postemergence
Summary of the method: as §1

[15] = tested on: corn (Zea mays); assay: Test A postemergence
Summary of the method: as §1

[16] = tested on: ryegrass, Italian (Italian ryegrass, Lolium multiflorum); assay: Test A postemergence; conditions: postemergence
Summary of the method: as §1

[17] = tested on: giant foxtail (Setaria faberii); assay: Test A postemergence; conditions: postemergence
Summary of the method: as §1

[18] = tested on: barnyardgrass (Echinochloa crus-galli); assay: Test A postemergence
Summary of the method: as §1

[19] = tested on: ragweed (common ragweed, Ambrosia elatior); assay: Test A postemergence; conditions: postemergence
Summary of the method: as §1

[20] = tested on: wheat (Triticum aestivum); assay: Test A postemergence; conditions: postemergence
Summary of the method: as §1

[21] = tested on: Galium (catchweed bedstraw, Galium aparine); assay: Test A postemergence; conditions: postemergence
Summary of the method: as §1

[22] = 125 g ai/ha, preemergence, 0 to 100 scale (0 no effect, 100 complete control)
[23] = Preemergence, 500 g ai/ha, visual injury approx. 10 d
[24] = 125 g ai/ha, postemergence, visual injury rating on 0 to 100 scale (0 no effect, 100 complete control), approx. 10 d
[25] = 500 g ai/ha, postemergence, 0 to 100 scale, 0 no effect, 100 complete control
[26] = 125 g ai/ha, visual injury rating on 0 to 100 scale (0 no effect, 100 complete control), approx. 10 d
[27] = 500 g ai/ha, 0 to 100 scale, 0 no effect, 100 complete control
[28] = 125 g ai/ha, Preemergence, visual injury after approximately 10 d, 0 to 100 scale where 0 is no effect and 100 is complete control
[29] = 500 g ai/ha, preemergence, 0 to 100 scale, 0 = no effect, 100 = complete control
[30] = 125 g ai/ha, postemergence, visual rating after approx. 10 d, 0 to 100 scale (0 no effect, 100 complete control)
[31] = 500 g ai/ha, postemergence, visual injury, 0 to 100 scale (0 no effect, 100 complete control), approx. 10 d
[32] = 125 g ai/ha, visual rating after approx. 10 d, 0 to 100 scale (0 no effect, 100 complete control)
[33] = 500 g ai/ha, visual injury, 0 to 100 scale (0 no effect, 100 complete control), approx. 10 d
[34] = Postemergence, 500 g ai/ha, 0 to 100 scale where 0 is no effect and 100 is complete control

CN1CC(c2ccc(C(F)(F)F)cc2)C(C(=S)Nc2ccccc2F)C1=O (stereo not drawn) [Compound 450]
40: Ryegrass, Italian plant response rating (0 to 100 scale, 0 is no effect, 100 is complete control) [3, 23] | Plant response rating, Blackgrass [12, 25]
50: Plant response rating, Kochia [2, 22] | Pigweed plant response rating [13, 26] | Plant response rating, Kochia [14, 27] | Plant response rating, Ryegrass, Italian [16, 27] | Galium plant response rating [21, 26]
80: Pigweed plant response rating (0 to 100 scale, 0 is no effect, 100 is complete control) [1, 23] | Kochia plant response rating (0 to 100 scale, 0 is no effect, 100 is complete control) [2, 23] | Foxtail, Giant plant response rating [17, 26] | Plant response rating, Foxtail, Giant [17, 27] | Barnyardgrass plant response rating [18, 24]
20: Plant response rating, Ragweed [6, 22] | Blackgrass plant response rating [12, 24] | Kochia plant response rating [14, 26] | Corn plant response rating [15, 24] | Ragweed plant response rating [19, 26]
90: Plant response rating, Foxtail, Giant [4, 22] | Foxtail, Giant plant response rating (0 to 100 scale, 0 is no effect, 100 is complete control) [4, 23] | Plant response rating, Barnyardgrass [5, 22] | Barnyardgrass plant response rating (0 to 100 scale, 0 is no effect, 100 is complete control) [5, 23] | Plant response rating, Barnyardgrass [18, 25]
60: Plant response rating, Blackgrass ([11]; 250 g ai/ha) | Plant response rating, Pigweed [13, 27] | Plant response rating, Corn [15, 25] | Plant response rating, Galium [21, 27]
0: Plant response rating, Ryegrass, Italian [3, 22] | Plant response rating, Rice [7] | Plant response rating, Sedge, Umbrella [9] | Plant response rating, Blackgrass ([11]; 31 g ai/ha) | Plant response rating, Blackgrass ([11]; 62 g ai/ha) | Ryegrass, Italian plant response rating [16, 26] | Wheat plant response rating [20, 26]
45: Plant response rating, Barnyardgrass [10] | Plant response rating, Blackgrass ([11]; 125 g ai/ha)
75: Plant response rating, Ducksalad [8]
30: Plant response rating, Ragweed [19, 27] | Plant response rating, Wheat [20, 27]
70: Plant response rating, Pigweed [1, 22] | Ragweed plant response rating (0 to 100 scale, 0 is no effect, 100 is complete control) [6, 23]

Cc1ccc(C2CN(C)C(=O)C2C(=O)Nc2cccc(F)c2F)cc1 (stereo not drawn) [Compound 662]
40: Plant response rating, Ryegrass, Italian [3, 28] | Plant response rating, Ryegrass, Italian [16, 32]
20: Plant response rating, Rice [7] | Plant response rating, Pigweed [13, 32] | Plant response rating, Ragweed [19, 32]
75: Plant response rating, Blackgrass ([11]; 62 g ai/ha)
95: Plant response rating, Ducksalad [8] | Plant response rating, Blackgrass ([11]; 125 g ai/ha)
100: Plant response rating, Foxtail, Giant [4, 28] | Plant response rating, Foxtail, Giant [4, 29]
50: Plant response rating, Pigweed [13, 33]
60: Plant response rating, Blackgrass [12, 30] | Plant response rating, Ragweed [19, 33] | Plant response rating, Galium [21, 32]
90: Plant response rating, Kochia [2, 29] | Plant response rating, Ryegrass, Italian [3, 29] | Plant response rating, Barnyardgrass [5, 28] | Plant response rating, Barnyardgrass [5, 29] | Plant response rating, Corn [15, 31] | Plant response rating, Foxtail, Giant [17, 32] | Plant response rating, Foxtail, Giant [17, 33] | Plant response rating, Barnyardgrass [18, 30] | Plant response rating, Barnyardgrass [18, 31]
0: Plant response rating, Sedge, Umbrella [9]
80: Plant response rating, Pigweed [1, 29] | Plant response rating, Ragweed [6, 28] | Plant response rating, Ragweed [6, 29] | Plant response rating, Barnyardgrass [10] | Plant response rating, Blackgrass [12, 31] | Plant response rating, Corn [15, 30] | Plant response rating, Wheat [20, 32] | Plant response rating, Wheat [20, 33]
70: Plant response rating, Pigweed [1, 28] | Plant response rating, Kochia [2, 28] | Plant response rating (scale of 0 to 100), Blackgrass ([11]; 31 g ai/ha) | Plant response rating, Kochia [14, 32] | Plant response rating, Kochia [14, 33] | Plant response rating, Ryegrass, Italian [16, 33] | Plant response rating, Galium [21, 33]
98: Plant response rating, Blackgrass ([11]; 250 g ai/ha)

CN1CC(c2cccc(C(F)(F)F)c2)C(C(=O)Nc2ccccc2S(C)(=O)=O)C1=O (stereo not drawn) [Compound 637]
100: Plant response rating, Pigweed [1, 29] | Plant response rating, Foxtail, Giant [4, 29] | Plant response rating, Ducksalad [8]
50: Plant response rating, Ryegrass, Italian [3, 28] | Plant response rating, Blackgrass [12, 30] | Plant response rating, Pigweed [13, 32] | Plant response rating, Galium [21, 32] | Plant response rating, Galium [21, 33]
20: Plant response rating, Ryegrass, Italian [16, 32] | Plant response rating, Ryegrass, Italian [16, 33] | Plant response rating, Ragweed [19, 33]
10: Plant response rating, Rice [7]
0: Plant response rating, Sedge, Umbrella [9] | Plant response rating, Kochia [14, 32] | Plant response rating, Ragweed [19, 32]
30: Plant response rating, Kochia [14, 33]
90: Plant response rating, Ryegrass, Italian [3, 29] | Plant response rating, Foxtail, Giant [4, 28] | Plant response rating, Barnyardgrass [5, 28] | Plant response rating, Barnyardgrass [5, 29] | Plant response rating, Blackgrass ([11]; 62 g ai/ha) | Plant response rating, Blackgrass ([11]; 125 g ai/ha) | Plant response rating, Blackgrass ([11]; 250 g ai/ha) | Plant response rating, Foxtail, Giant [17, 32] | Plant response rating, Foxtail, Giant [17, 33] | Plant response rating, Barnyardgrass [18, 30] | Plant response rating, Barnyardgrass [18, 34]
80: Plant response rating, Pigweed [1, 28] | Plant response rating, Barnyardgrass [10]
40: Plant response rating, Kochia [2, 28] | Plant response rating, Ragweed [6, 28]
70: Plant response rating, Ragweed [6, 29] | Plant response rating (scale of 0 to 100), Blackgrass ([11]; 31 g ai/ha) | Plant response rating, Corn [15, 30] | Plant response rating, Corn [15, 34] | Plant response rating, Wheat [20, 32] | Plant response rating, Wheat [20, 33]
60: Plant response rating, Kochia [2, 29] | Plant response rating, Blackgrass [12, 34] | Plant response rating, Pigweed [13, 33]
